Test results: patent US20130210807A1, “Tricyclic Compounds as Allosteric Modulators of Metabotropic Glutamate Receptors” (priority 2010, published 2013)

These molecules were tested against T1, human mGluR4 (Homo sapiens, UniProt Q14833) (assay: mGluR4 Assay on HEK-Expressing Human mGluR4 (FLIPR Ca2+ fluorescence, PAM activity)). Details: Table I; human mGluR4 HEK-293 cells, Fluo4-AM/FLIPR, stimulated with glutamate EC25.
T1 construct: expressed in transfected cells; host or cells: HEK-293
Type: cell-based
Protocol: mGluR4 Assay on HEK-Expressing Human mGluR4
Since, as explained above, the compounds of the present invention are positive allosteric modulators of mGluR4 receptors, which activity was assayed by detecting changes in intracellular Ca^+2 ion concentration using a Ca^+2-sensitive fluorescent dye (Fluo4-(AM)) and a fluorometric imaging plate reader (FLIPR, Molecular Devices, Sunnyvale, Calif.) in accordance with the manufacturers instructions.
Accordingly, 24 hours prior to carrying out an analysis, human mGluR4 HEK-293 cells were plated out in black-walled, clear-bottomed, poly-L-ornithine-coated 384-well plates at a density of 25,000 cells/well in a glutamine/glutamate-free DMEM medium containing fetal bovine serum (10%), penicillin (100 units/mL) and streptomycin (100 micrograms/mL) at 37° C. under 5% CO2. On the day of the assay, the medium was aspirated and the cells were loaded with a 3 micro-molar solution of Fluo4-AM (LuBioScience, Lucerne, Switzerland) in 0.03% pluronic acid. After maintaining the plate 1 hour at 37° C. under 5% CO2 the non-incorporated dye was removed by washing the cell plate with the assay buffer and the cells were left in the dark at room temperature for six hours before evaluating. All assays were performed in a pH 7.4 buffered-solution containing 20 mM HEPES, 142 mM NaCl, 6 mM KCl, 1 mM MgSO4, 1 mM CaCl2, 0.125 mM sulfapyrazone, and 1% glucose.
Basal fluorescence was recorded over 10 seconds, then aliquots of various concentrations of a compound of the invention were added to the cells. Changes in fluorescence level were first monitored for 180 seconds in order to detect any agonist activity attributable to the compound being assayed. Then the cells were stimulated for an additional 110 seconds by that concentration of glutamate yielding 25% of the maximal response to glutamate (EC25). Concentration-response curves of compounds of the invention were generated using Prism GraphPad software (Graph Pad Inc., San Diego, USA). Curves generated were fitted to a four-parameter logistic equation allowing the determination of EC50 values:
Y=Bottom+(Top−Bottom)/(1+10^logEC^50-^X)*Hill Slope.
For each sample assayed, at least three independent measurements were performed. EC50 values thus determined are reported for each of the compounds of the invention in the respective Tables 1 to 3 herein above.

T1 sequence (Q14833 33-912): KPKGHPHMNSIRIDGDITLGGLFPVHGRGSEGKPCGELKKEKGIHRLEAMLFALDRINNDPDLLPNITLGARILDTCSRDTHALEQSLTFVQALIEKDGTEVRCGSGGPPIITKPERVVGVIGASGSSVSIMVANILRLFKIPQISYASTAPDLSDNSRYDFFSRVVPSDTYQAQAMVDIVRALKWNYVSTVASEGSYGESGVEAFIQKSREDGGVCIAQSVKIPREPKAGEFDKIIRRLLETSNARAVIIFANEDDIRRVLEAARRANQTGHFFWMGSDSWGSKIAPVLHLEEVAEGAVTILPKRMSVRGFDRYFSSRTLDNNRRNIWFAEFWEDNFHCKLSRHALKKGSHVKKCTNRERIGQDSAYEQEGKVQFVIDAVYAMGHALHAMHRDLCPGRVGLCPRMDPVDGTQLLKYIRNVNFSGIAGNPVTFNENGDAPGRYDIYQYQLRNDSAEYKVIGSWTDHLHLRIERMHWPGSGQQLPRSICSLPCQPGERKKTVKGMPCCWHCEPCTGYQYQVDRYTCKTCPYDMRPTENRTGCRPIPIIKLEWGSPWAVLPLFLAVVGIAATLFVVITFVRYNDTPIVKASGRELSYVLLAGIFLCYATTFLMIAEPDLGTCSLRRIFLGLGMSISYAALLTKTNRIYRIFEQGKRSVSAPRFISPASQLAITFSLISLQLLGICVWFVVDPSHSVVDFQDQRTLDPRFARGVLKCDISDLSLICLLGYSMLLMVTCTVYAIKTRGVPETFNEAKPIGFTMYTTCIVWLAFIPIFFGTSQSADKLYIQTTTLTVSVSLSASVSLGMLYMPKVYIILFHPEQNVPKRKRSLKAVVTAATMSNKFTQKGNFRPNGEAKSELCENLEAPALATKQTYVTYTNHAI

Q: Which EC50 does the source give for Cc1ccnc(Nc2nc3c(cc(C)c4[nH]ncc43)s2)n1 [Cmpd 8, 5-methyl-N-(4-methylpyrimidin-2-yl)-6H-[1,3]thiazolo[4,5-e]indazol-2-amine] here?
A: The EC50 was 129 nM.

Q: Cc1ccnc(Nc2nc3c(s2)C(C)(C)Cc2[nH]ncc2-3)n1 [Cmpd 1, 4,4-dimethyl-N-(4-methylpyrimidin-2-yl)-5,6-dihydro-4H-[1,3]thiazolo[4,5-e]indazol-2-amine] was tested. Which EC50 did it give?
A: Its EC50 is 326 nM.

Q: For Cc1nc(Nc2nc3c(s2)C(C)(C)Cc2[nH]ncc2-3)ncc1F [Cmpd 5, N-(5-fluoro-4-methylpyrimidin-2-yl)-4,4-dimethyl-5,6-dihydro-4H-[1,3]thiazolo[4,5-e]indazol-2-amine], which EC50 is on record?
A: Its EC50 is 645 nM.

Q: Clc1cc2sc(Nc3ncccn3)nc2c2cn[nH]c12 [Cmpd 7, 5-chloro-N-(pyrimidin-2-yl)-6H-[1,3]thiazolo[4,5-e]indazol-2-amine] was tested. Which EC50 did it give?
A: The EC50 was 2 nM.

Q: How did the EC50 turn out when Brc1cc2sc(Nc3ncccn3)nc2c2cn[nH]c12 [Cmpd 6, 5-bromo-N-(pyrimidin-2-yl)-6H-[1,3]thiazolo[4,5-e]indazol-2-amine] was run?
A: Its EC50 is 1 nM.

Q: With CC1(C)Cc2[nH]ncc2-c2nc(Nc3ncc(F)cn3)sc21 [Cmpd 4, N-(5-fluoropyrimidin-2-yl)-4,4-dimethyl-5,6-dihydro-4H-[1,3]thiazolo[4,5-e]indazol-2-amine] as the molecule, how does the EC50 read?
A: The EC50 was 753 nM.

Q: How did the EC50 turn out when CC1Cc2sc(Nc3ncccn3)nc2-c2cn[nH]c21 (stereo not drawn) [Cmpd 9, 5-methyl-N-(pyrimidin-2-yl)-5,6-dihydro-4H-[1,3]thiazolo[4,5-e]indazol-2-amine] was run?
A: The EC50 was 2 nM.

Q: For c1cnc(Nc2nc3c(ccc4[nH]ncc43)s2)nc1 [Cmpd 3, N-(pyrimidin-2-yl)-6H-[1,3]thiazolo[4,5-e]indazol-2-amine], which EC50 is on record?
A: The EC50 was 9 nM.

Q: For Cc1ccnc(Nc2nc3c(s2)C2(CC2)Cc2[nH]ncc2-3)n1 [Cmpd 11, N-(4-methylpyrimidin-2-yl)-5′,6′-dihydrospiro[cyclopropane-1,4′-[1,3]thiazolo[4,5-e]indazol]-2′-amine], which EC50 is on record?
A: Its EC50 is 545 nM.

Q: For Cc1ccnc(Nc2nc3c(ccc4[nH]ncc43)s2)n1 [Cmpd 2, N-(4-methylpyrimidin-2-yl)-6H-[1,3]thiazolo[4,5-e]indazol-2-amine], which EC50 is on record?
A: Its EC50 is 28 nM.

Q: Which EC50 does the source give for Fc1cnc(Nc2nc3c(s2)C2(CC2)Cc2[nH]ncc2-3)nc1 [Cmpd 13, N-(5-fluoropyrimidin-2-yl)-5′,6′-dihydrospiro[cyclopropane-1,4′-[1,3]thiazolo[4,5-e]indazol]-2′-amine] here?
A: Its EC50 is 93 nM.

Q: With Cc1ccnc(Nc2nc3c(s2)CC(C)c2[nH]ncc2-3)n1 (stereo not drawn) [Cmpd 10, 5-methyl-N-(4-methylpyrimidin-2-yl)-5,6-dihydro-4H-[1,3]thiazolo[4,5-e]indazol-2-amine] as the molecule, how does the EC50 read?
A: The EC50 was 36 nM.

Q: How did the EC50 turn out when c1cnc(Nc2nc3c(s2)C2(CC2)Cc2[nH]ncc2-3)nc1 [Cmpd 12, N-(pyrimidin-2-yl)-5′-6′-dihydrospiro[cyclopropane-1,4′-[1,3]thiazolo[4,5-e]indazol]-2′-amine] was run?
A: The EC50 was 35 nM.

Same assay, conditions: Table II; human mGluR4 HEK-293 cells, Fluo4-AM/FLIPR, stimulated with glutamate EC25

Q: For c1cnc(Nc2nc3c(s2)CNCc2[nH]ncc2-3)nc1 [Cmpd 27, N-(pyrimidin-2-yl)-4,5,6,7-tetrahydropyrazolo[3,4-c][1,3]thiazolo[4,5-e]azepin-2-amine], which EC50 is on record?
A: The EC50 was 994 nM.

Q: With c1cnc(Nc2nc3c(s2)COCc2[nH]ncc2-3)nc1 [Cmpd 16, N-(pyrimidin-2-yl)-6,7-dihydro-4H-pyrazolo[4′,3′:5,6]oxepino[4,3-d][1,3]thiazol-2-amine] as the molecule, how does the EC50 read?
A: The EC50 was 7 nM.

Q: How did the EC50 turn out when Cc1ccnc(Nc2nc3c(s2)CC(F)Cc2[nH]ncc2-3)n1 (stereo not drawn) [Cmpd 40] was run?
A: The EC50 was 20 nM.

Q: Cc1ccnc(Nc2nc3c(s2)CCC(=O)c2[nH]ncc2-3)n1 [Cmpd 36, 2-[(4-methylpyrimidin-2-yl)amino]-4,7-dihydropyrazolo[3′,4′:6,7]cyclohepta[1,2-d][1,3]thiazol-6(5H)-one] was tested. Which EC50 did it give?
A: Its EC50 is 1500 nM.

Q: Cc1ccnc(Nc2nc3c(s2)CN(C)Cc2[nH]ncc2-3)n1 [Cmpd 28, 5-methyl-N-(4-methylpyrimidin-2-yl)-4,5,6,7-tetrahydropyrazolo[3,4-c][1,3]thiazolo[4,5-e]azepin-2-aminee] was tested. Which EC50 did it give?
A: The EC50 was 2380 nM.

Q: With Cc1ccnc(Nc2nc3c(s2)COCc2[nH]ncc2-3)n1 [Cmpd 17, N-(4-methylpyrimidin-2-yl)-6,7-dihydro-4H-pyrazolo[4′,3′:5,6]oxepino[4,3-d][1,3]thiazol-2-amine] as the molecule, how does the EC50 read?
A: The EC50 was 10 nM.

Q: For Cc1ccnc(Nc2nc3c(s2)C(C)OC(C)c2[nH]ncc2-3)n1 (stereo not drawn) [Cmpd 24, 4,6-dimethyl-N-(4-methylpyrimidin-2-yl)-6,7-dihydro-4H-pyrazolo[4′,3′:5,6]oxepino-[4,3-d][1,3]thiazol-2-amine], which EC50 is on record?
A: Its EC50 is 121 nM.

Q: With c1cnc(Nc2nc3c(s2)Cc2[nH]ncc2-3)nc1 [Cmpd 14, N-(pyrimidin-2-yl)-1,7-dihydropyrazolo[3′,4′:4,5]cyclopenta[1,2-d][1,3]thiazol-5-amine] as the molecule, how does the EC50 read?
A: The EC50 was 1420 nM.

Q: Cc1ccnc(Nc2nc3c(s2)CCC(F)(F)c2[nH]ncc2-3)n1 [Cmpd 34, 6,6-difluoro-N-(4-methylpyrimidin-2-yl)-4,5,6,7-tetrahydropyrazolo[3′,4′:6,7]cyclohepta[1,2-d][1,3]thiazol-2-amine] was tested. Which EC50 did it give?
A: The EC50 was 56 nM.

Q: For Fc1cnc(Nc2nc3c(s2)CCCc2[nH]ncc2-3)nc1 [Cmpd 29, N-(5-fluoropyrimidin-2-yl)-4,5,6,7-tetrahydropyrazolo[3′,4′:6,7]cyclohepta[1,2-d][1,3]thiazol-2-amine], which EC50 is on record?
A: The EC50 was 39 nM.

Q: COc1ccnc(Nc2nc3c(s2)COCc2[nH]ncc2-3)n1 [Cmpd 19, N-(4-methoxypyrimidin-2-yl)-6,7-dihydro-4H-pyrazolo[4′,3′:5,6]oxepino[4,3-d][1,3]thiazol-2-amine] was tested. Which EC50 did it give?
A: The EC50 was 28 nM.

Q: With Cc1ccnc(Nc2nc3c(s2)C(C)OCc2[nH]ncc2-3)n1 (stereo not drawn) [Cmpd 23, 4-methyl-N-(4-methylpyrimidin-2-yl)-6,7-dihydro-4H-pyrazolo[4′,3′:5,6]oxepino[4,3-d][1,3]thiazol-2-amine] as the molecule, how does the EC50 read?
A: The EC50 was 186 nM.

Q: How did the EC50 turn out when Fc1cnc(Nc2nc3c(s2)COCc2[nH]ncc2-3)nc1 [Cmpd 15, N-(5-fluoropyrimidin-2-yl)-6,7-dihydro-4H-pyrazolo[4′,3′:5,6]oxepino[4,3-d][1,3]thiazol-2-amine] was run?
A: Its EC50 is 8 nM.

Q: How did the EC50 turn out when CCc1ccnc(Nc2nc3c(s2)COC(C)c2[nH]ncc2-3)n1 (stereo not drawn) [Cmpd 20, 6-Methyl-N-[4-(ethyl)pyrimidin-2-yl]-6,7-dihydro-4H-pyrazolo[4′,3′:5,6]oxepino[4,3-d][1,3]thiazol-2-amine] was run?
A: Its EC50 is 173 nM.

Q: With Cc1ccnc(Nc2nc3c(s2)COC(C)c2[nH]ncc2-3)n1 (racemic) [Cmpd 18, N-(4-methylpyrimidin-2-yl)-6-methyl-6,7-dihydro-4H-pyrazolo[4′,3′:5,6]oxepino[4,3-d][1,3]-thiazol-2-amine] as the molecule, how does the EC50 read?
A: Its EC50 is 3 nM.

Q: With Cc1nc(Nc2nc3c(s2)COC(C)c2[nH]ncc2-3)ncc1F (stereo not drawn) [Cmpd 21, N-(5-Fluoro-4-methylpyrimidin-2-yl)-6-methyl-6,7-dihydro-4H-pyrazolo[4′,3′:5,6]oxepino[4,3-d][1,3]thiazol-2-amine] as the molecule, how does the EC50 read?
A: The EC50 was 27 nM.

Same assay, conditions: text b34; human mGluR4 HEK-293 cells, glutamate EC25

Q: How did the EC50 turn out when Cc1nc(Nc2nc3c(s2)COC(C)c2[nH]ncc2-3)ns1 (stereo not drawn) [Cmpd 38] was run?
A: The EC50 was 70 nM.
